According to the NIST ThermoML archive (doi:10.1016/j.jct.2010.06.011):
± gives the expanded uncertainty stated by the source.

Legend:
[1] = Liquid, Vibrating tube method
[2] = xn = mol fraction of the nth substance listed; conditions: Liquid, Vibrating tube method, x2 = 0

COC(=O)OC [dimethyl carbonate]
mass density [kg/m3], [1]
Conditions	100 kPa	5000 kPa	10000 kPa	20000 kPa	30000 kPa	40000 kPa
293.15 K	1069.8 ± 0.3	1074.4 ± 0.3	1078.6 ± 0.3	1086.9 ± 0.3	1094.5 ± 0.3	1101.9 ± 0.4
298.15 K	1063.2 ± 0.3	1068 ± 0.3	1072.4 ± 0.3	1080.8 ± 0.3	1088.7 ± 0.3	1096.2 ± 0.4
303.15 K	1056.5 ± 0.3	1061.3 ± 0.3	1066 ± 0.3	1074.7 ± 0.3	1082.9 ± 0.3	1090.4 ± 0.4
308.15 K	1049.8 ± 0.3	1054.6 ± 0.3	1059.4 ± 0.3	1068.5 ± 0.3	1077 ± 0.3	1084.8 ± 0.3
313.15 K	1043 ± 0.3	1048.1 ± 0.3	1053 ± 0.3	1062.3 ± 0.3	1071 ± 0.3	1079 ± 0.3

CCCCCC [hexane]
mass density [kg/m3], [1]
Conditions	100 kPa	5000 kPa	10000 kPa	20000 kPa	30000 kPa	40000 kPa
293.15 K	659.4 ± 0.3	664.8 ± 0.3	669.7 ± 0.4	678.7 ± 0.5	686.9 ± 0.6	694.3 ± 0.7
298.15 K	654.9 ± 0.3	660.4 ± 0.3	665.5 ± 0.4	674.8 ± 0.5	683.2 ± 0.6	690.7 ± 0.7
303.15 K	650.2 ± 0.3	655.8 ± 0.3	661.2 ± 0.4	670.8 ± 0.5	679.3 ± 0.6	687 ± 0.7
308.15 K	645.7 ± 0.3	651.5 ± 0.3	657 ± 0.4	666.9 ± 0.5	675.8 ± 0.6	683.6 ± 0.7
313.15 K	640.9 ± 0.3	647 ± 0.3	652.8 ± 0.4	663.1 ± 0.5	672.1 ± 0.6	680.2 ± 0.7

CCCCCC [hexane] + COC(=O)OC
mass density [kg/m3], [2]
Conditions	100 kPa	5000 kPa	10000 kPa	20000 kPa	30000 kPa	40000 kPa
293.15 K	659.4 ± 0.3	664.8 ± 0.3	669.7 ± 0.4	678.7 ± 0.5	686.9 ± 0.6	694.3 ± 0.7
298.15 K	654.9 ± 0.3	660.4 ± 0.3	665.5 ± 0.4	674.8 ± 0.5	683.2 ± 0.6	690.7 ± 0.7
303.15 K	650.2 ± 0.3	655.8 ± 0.3	661.2 ± 0.4	670.8 ± 0.5	679.3 ± 0.6	687 ± 0.7
308.15 K	645.7 ± 0.3	651.5 ± 0.3	657 ± 0.4	666.9 ± 0.5	675.8 ± 0.6	683.6 ± 0.7
313.15 K	640.9 ± 0.3	647 ± 0.3	652.8 ± 0.4	663.1 ± 0.5	672.1 ± 0.6	680.2 ± 0.7
